This note sets out measurements from ChEMBL document CHEMBL3994638, “The juxtamembrane region of TrkA kinase is critical for inhibitor selectivity” (Bioorg Med Chem Lett, 2017).

As a reminder, the IC50 is the point on the concentration scale where inhibition reaches its midpoint.

Assay [1] addresses BDNF/NT-3 growth factors receptor (Homo sapiens, UniProt Q16620). Kind of assay: Inhibition of recombinant human TrkB expressed in DHFR deficient CHO cells assessed as inhibition of human brain-derived neurotrophic factor-induced calcium influx by Fluo-4 AM dye based assay. It counts as cell-based.
Assay [2] concerns the target T1, High affinity nerve growth factor receptor (Homo sapiens, UniProt P04629). Kind of assay: Inhibition of recombinant human TrkA expressed in DHFR deficient CHO cells assessed as inhibition of human beta-nerve growth factor-induced calcium influx by Fluo-4 AM dye based assay. It counts as cell-based.
The target in assay [3] is T1, High affinity nerve growth factor receptor. Kind of assay: Inhibition of juxtamembrane region deficient recombinant human N-terminal His6-tagged/GST-tagged TrkA (498 to 796 residues) expressed in baculovirus infected Hi5 cells using TK substrate after 60 mins by HTRF assay. In general terms: TR-FRET usually uses a lanthanide donor and a delayed reading to cut background.

For assay [4], the target named is NT-3 growth factor receptor (Homo sapiens, UniProt Q16288). Kind of assay: Inhibition of recombinant human TrkC expressed in DHFR deficient CHO cells assessed as inhibition of human neurotrophin-3-induced calcium influx by Fluo-4 AM dye based assay. It is filed as cell-based.
NT-3 growth factor receptor, sequence (Q16288 whole entry, the tested form may be a part): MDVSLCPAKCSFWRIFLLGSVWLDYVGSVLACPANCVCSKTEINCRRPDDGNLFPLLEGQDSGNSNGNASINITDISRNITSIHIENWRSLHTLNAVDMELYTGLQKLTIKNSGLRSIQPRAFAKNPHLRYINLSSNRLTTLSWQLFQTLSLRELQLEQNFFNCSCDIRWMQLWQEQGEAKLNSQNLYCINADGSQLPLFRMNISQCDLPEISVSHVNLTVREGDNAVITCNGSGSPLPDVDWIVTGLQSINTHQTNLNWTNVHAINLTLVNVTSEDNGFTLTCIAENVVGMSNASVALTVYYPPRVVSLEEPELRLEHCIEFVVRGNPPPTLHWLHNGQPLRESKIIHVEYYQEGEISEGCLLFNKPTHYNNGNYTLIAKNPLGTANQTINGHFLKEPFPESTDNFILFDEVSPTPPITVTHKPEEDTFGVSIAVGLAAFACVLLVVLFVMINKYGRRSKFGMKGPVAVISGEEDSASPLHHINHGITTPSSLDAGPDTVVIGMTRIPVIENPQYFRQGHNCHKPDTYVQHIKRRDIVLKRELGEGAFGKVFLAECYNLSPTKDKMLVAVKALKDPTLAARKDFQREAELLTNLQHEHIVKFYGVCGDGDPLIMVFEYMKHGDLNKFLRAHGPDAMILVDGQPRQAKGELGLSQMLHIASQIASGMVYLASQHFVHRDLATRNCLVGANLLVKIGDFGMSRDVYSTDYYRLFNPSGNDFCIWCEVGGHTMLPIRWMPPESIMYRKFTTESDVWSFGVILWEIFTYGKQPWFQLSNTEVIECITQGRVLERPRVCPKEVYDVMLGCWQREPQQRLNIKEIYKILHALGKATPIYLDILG
Assay [5] deals with T1, High affinity nerve growth factor receptor. Kind of assay: Inhibition of juxtamembrane region containing recombinant human N-terminal His6-tagged/GST-tagged TrkA (473 to 796 residues) expressed in baculovirus infected Hi5 cells using TK substrate after 60 mins by HTRF assay.

T1 sequence (P04629 whole entry, the tested form may be a part): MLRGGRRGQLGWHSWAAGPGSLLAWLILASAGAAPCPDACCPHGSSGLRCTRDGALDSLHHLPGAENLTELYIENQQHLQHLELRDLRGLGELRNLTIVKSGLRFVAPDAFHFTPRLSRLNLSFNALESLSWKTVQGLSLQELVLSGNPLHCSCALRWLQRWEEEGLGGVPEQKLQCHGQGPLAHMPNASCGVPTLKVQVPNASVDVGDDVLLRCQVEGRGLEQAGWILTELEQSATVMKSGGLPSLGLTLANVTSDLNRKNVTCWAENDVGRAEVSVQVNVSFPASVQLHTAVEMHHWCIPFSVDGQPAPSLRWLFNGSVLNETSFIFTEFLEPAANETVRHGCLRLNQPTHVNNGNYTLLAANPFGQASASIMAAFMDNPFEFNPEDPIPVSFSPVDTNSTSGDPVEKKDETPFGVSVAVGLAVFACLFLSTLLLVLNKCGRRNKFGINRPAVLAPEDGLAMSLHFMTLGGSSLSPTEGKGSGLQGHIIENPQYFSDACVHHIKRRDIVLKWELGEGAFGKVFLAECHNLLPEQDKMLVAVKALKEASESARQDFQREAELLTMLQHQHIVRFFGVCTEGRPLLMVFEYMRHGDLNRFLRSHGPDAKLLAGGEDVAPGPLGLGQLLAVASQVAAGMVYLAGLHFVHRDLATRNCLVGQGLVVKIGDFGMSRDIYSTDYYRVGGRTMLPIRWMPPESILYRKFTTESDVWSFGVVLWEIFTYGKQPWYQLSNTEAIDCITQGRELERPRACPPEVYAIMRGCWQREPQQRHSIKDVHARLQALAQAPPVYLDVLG
BDNF/NT-3 growth factors receptor, sequence (Q16620 whole entry): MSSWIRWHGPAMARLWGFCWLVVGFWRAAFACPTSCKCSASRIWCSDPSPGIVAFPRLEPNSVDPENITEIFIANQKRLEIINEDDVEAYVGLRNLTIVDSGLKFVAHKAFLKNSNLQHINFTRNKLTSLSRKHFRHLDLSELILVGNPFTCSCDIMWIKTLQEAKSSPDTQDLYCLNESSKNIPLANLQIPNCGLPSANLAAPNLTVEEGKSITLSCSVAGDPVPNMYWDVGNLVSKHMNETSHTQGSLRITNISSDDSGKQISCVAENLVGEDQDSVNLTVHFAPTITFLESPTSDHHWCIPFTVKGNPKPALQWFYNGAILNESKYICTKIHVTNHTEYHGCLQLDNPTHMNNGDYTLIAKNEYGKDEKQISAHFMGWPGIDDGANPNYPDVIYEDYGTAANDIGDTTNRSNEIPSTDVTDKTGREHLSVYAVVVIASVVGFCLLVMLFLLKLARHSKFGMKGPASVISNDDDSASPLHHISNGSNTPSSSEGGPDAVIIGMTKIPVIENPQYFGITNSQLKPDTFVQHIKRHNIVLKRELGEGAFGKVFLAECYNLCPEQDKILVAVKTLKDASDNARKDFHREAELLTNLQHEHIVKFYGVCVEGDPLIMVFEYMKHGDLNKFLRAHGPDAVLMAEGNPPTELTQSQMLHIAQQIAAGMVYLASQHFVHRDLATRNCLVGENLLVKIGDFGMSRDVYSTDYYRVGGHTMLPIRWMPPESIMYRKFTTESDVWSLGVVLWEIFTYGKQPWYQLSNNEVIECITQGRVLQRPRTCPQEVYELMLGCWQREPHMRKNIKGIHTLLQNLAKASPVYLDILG

For `COc1cc(-c2cn(CC(=O)Nc3cc(C4CC4)nn3-c3ccccc3)nn2)ccc1-n1cnc(C)c1`, the concentration for half-maximal inhibition (IC50) in assay [1] turned out to be 132 nM.
In the case of `CCOc1nn(-c2ccccc2)c(NC(=O)N[C@@H]2CN(CCOC)C[C@H]2c2ccc(F)c(F)c2)c1C`, the IC50 in assay [2] came to 2.7 nM; in assay [3], 37200 nM; in assay [4], 2480 nM; in assay [1], 1300 nM; in assay [5], 6 nM.
Consider `CC(C)Oc1cc(Nc2nc(N[C@@H](C)c3ccc(F)cn3)ncc2Cl)n[nH]1`, for which the IC50 worked out at 7.2 nM in assay [4] and 6.8 nM in assay [1].
